Source: PMC12326976 (Antimicrobial Agents and Chemotherapy, 2025)
Bridge positions count the residues as written; N and C are the ends. Ends that are not written are not given here. I, II: the chains in the order shown.

Columns and labels:
[1] = test system: H1N1 virus; type: cell-based, influenza H1N1 virus
[2] = target: Influenza HA (Influenza A virus, UniProt C3W5S1); assay: ELISA binding assay, HA; details: 4H30 1 µg coated, HA 100 ng, anti-His antibody, Fig. 2a
Protocol: Peptides (1.0 µg per well) were dissolved in H2O. Influenza HA, NA (Sino, Cat^# 11058-V07B), or LDLR (Sino, Cat^# 10231-H081-50, 100 ng) dissolved in PBS was coated onto ELISA plates, incubated at 4°C overnight, and blocked with BSA at 4°C overnight. HA or VP1 was added to wells for binding and then determined by incubation with goat anti-His-HRP (Invitrogen, Cat^# R93125, 1: 2,000) at 37°C for 30 min. The reaction was developed by adding 100 µL of the TMB single solution (Life Technologies, Cat^# 002023) for 15 min at 37°C and stopped with 50 µL of 1 M H2SO4. Readings were obtained in an ELISA plate reader (Victor 1420 Multilabel Counter; PerkinElmer) at 450 nm.

[3] = test system: rhinovirus A1; type: cell-based
[4] = test system: rhinovirus A1; type: cell-based; remark: listed apart in the source
[5] = test system: H1N1 virus; assay: Plaque reduction assay, H1N1 in MDCK cells; type: cell-based, influenza A/Hong Kong/415742/2009 (H1N1); details: virus treated with 4H30 50 µg mL^−1, then diluted to 0.05 µg mL^−1 for plaque assay, Fig. 1e
Protocol: The antiviral activity of peptides was measured by plaque reduction assay. Briefly, peptides were dissolved in PBS or 20% PBS. Peptides (0.2-25.0 µg mL^−1) were premixed with H1N1 virus at room temperature. After 30 min of incubation, the peptide-virus mixture was transferred to MDCK cells for infection at 37°C. At 1 hpi, infectious media were removed, and then 1% low melting agar was added to cells. Cells were fixed using 4% formalin at 2–3 dpi. […] (0.1%) was added to cells for cell staining to count viral plaques.

[6] = test system: rhinovirus A1; assay: Anti-rhinovirus assay in nasal organoids; type: cell-based; details: 4H30 25 µg mL^−1; viral loads in supernatants at 24, 48 and 72 hpi; RT-qPCR; Fig. 5b
Protocol: Organoid culture was established according to previous studies ([28], [29]). When the cells differentiated into mature 2D airway organoids within 12–14 days, the 2D organoids were ready for antiviral experiments. Rhinovirus (5000 TCID50) was mixed with peptide (25 µg mL^−1) or without peptides in culture media for organoid infection. After 2 h infection, we removed the infectious media and added fresh media with or without peptides. The supernatants were collected at 2 hpi, 24 hpi, 48 hpi, and 72 hpi to measure the viral loads by RT-qPCR.
Fig 5 4H30 inhibited rhinovirus replication in nasal organoids and cardiomyocytes. (a) Rhinovirus A1 could not replicate efficiently in mice. Rhinovirus (1 × 10^7 TCID50) was intranasally inoculated to mice. Viral RNAs were measured on day 1, day 2, and day 3 post-infection. […] (c) Rhinovirus A1 (0.01 MOI) could effectively replicate in cardiomyocytes. […] Viral RNAs in the cell supernatants were measured by RT-qPCR at the indicated time points. Data are presented as mean ± SD of indicated biological samples.

[7] = test system: A(H1N1)pdm09 virus; parameters: species or system BALB/c mice; details: mouse, in vivo
[8] = test system: H1N1 virus; type: cell-based, influenza H1N1 virus; remark: listed apart in the source
[9] = test system: MDCK cells; assay: Cytotoxicity MTT assay in MDCK cells; type: cell-based, canine; details: 24 h incubation, Fig. 1f
Protocol: Cytotoxicity of peptides was determined by detecting 50% cytotoxic concentration (CC50) using a tetrazolium-based colorimetric MTT assay ([27]). Cells were seeded in a 96-well cell culture plate at an initial density of 4 × 10^4 cells per well in MEM, supplemented with 10% FBS and incubated overnight. Cell culture media were removed, and then MEM supplemented with various concentrations of peptides and 1% FBS was added to each well. After 24 h incubation at 37°C, the MTT solution (5 mg mL^−1, 10 µL per well) was added to each well for incubation at 37°C for 4 h. Then, 100 µL of 10% SDS in 0.01M HCl was added to each well. After further incubation at room temperature with shaking overnight, the plates were read at OD570 using the VictorTM X3 Multilabel Reader (PerkinElmer, USA). Cell culture wells without peptides were used as the experiment control, and the medium was a blank control.

[10] = test system: rhinovirus A1; type: cell-based; remark: listed apart in the source
[11] = test system: neuraminidase activity of H1N1 virus; assay: Viral neuraminidase assay (NA-STAR); type: biochemical, influenza H1N1 virus; details: 4H30 50 and 12.5 µg mL^−1, 1 h, compared to zanamivir, Fig. S3
Protocol: Fig. S3. […] H1N1 virus was treated with MEM, zanamivir (5 μM and 1.25 μM), and 4H30 (50 μg mL^−1and 12.5 μg mL^−1) for 1 h. The neuraminidase activity was analysed using the Invitrogen NA-STAR INFLUENZA NIRD REAGENT (Cat^# 4374348). Data are presented as mean ± SD of indicated biological samples.

Sequence of Influenza HA (C3W5S1 entry or part of it, added parts left off): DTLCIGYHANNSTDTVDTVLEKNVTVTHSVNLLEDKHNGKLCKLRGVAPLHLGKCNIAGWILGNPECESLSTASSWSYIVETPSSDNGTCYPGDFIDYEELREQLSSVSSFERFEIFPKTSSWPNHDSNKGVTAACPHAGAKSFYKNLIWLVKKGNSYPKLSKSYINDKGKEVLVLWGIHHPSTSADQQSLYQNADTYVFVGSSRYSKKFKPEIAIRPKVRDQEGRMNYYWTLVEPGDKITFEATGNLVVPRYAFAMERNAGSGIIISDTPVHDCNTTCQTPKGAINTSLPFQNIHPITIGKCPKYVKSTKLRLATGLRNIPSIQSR

Substance: I: GAICHPVFCPRRYKQIGTCGLPGTKCCKKPKK / II: GAICHPVFCPRRYKQIGTCGLPGTKCCKKPK / III: GAICHPVFCPRRYKQIGTCGLPGTKCCKKP / IV: GAICHPVFCPRRYKQIGTCGLPGTKCCKKP (amide I:31-IV:C, I:32-II:C, II:31-III:C; cysteines drawn unpaired) [4H30]
- H1N1 replication, cells treated before and after infection (1h-Pre, 1h-Post) [1]: did not show significant antiviral activity when cells were treated before and after viral infection
- H1N1 replication, virus treated before infection [1]: inhibited viral replication when the virus was treated with 4H30 before viral infection
- binding to HA protein [2]: bound to HA protein
- rhinovirus entry [3]: blocked rhinovirus entry on the cell membrane
- rhinovirus release from RD cells [4]: did not inhibit viral release
- antiviral activity after treating virus and 1,000-fold dilution [5]: displayed significant antiviral activity against the virus
- rhinovirus replication in nasal organoids [6]: significantly inhibited rhinovirus replication in nasal organoids
- survival of mice after lethal H1N1 challenge (protected mice) [7]: 5/6
- body weight loss of H1N1-infected mice ([7]; 0.5 mg/kg): significantly reduced body weight loss
- viral loads in the lungs on day 2 post-infection ([7]; 0.5 mg/kg): significantly inhibited H1N1 viral replication in mouse lungs
- H1N1 entry into cells [8]: prevented viral entry into cells
- cytotoxicity in MDCK cells [9]: did not show noticeable toxicity in MDCK cells
- RV-A1 replication, cells (1h-Pre) or virus (Pre-mix) treated before infection [10]: significantly inhibited viral replication when cells or viruses were treated with 4H30 before viral infection
- RV-A1 replication, cells treated after infection (1h-Post and 2h-Post) [10]: showed reduced antiviral activity when cells were treated after viral infection
- antiviral activity after treating rhinovirus and dilution [10]: did not show antiviral activity against rhinovirus
- antiviral activity when added after virus attachment (4H30-Post) [10]: antiviral activity diminished when rhinovirus was attached to cells at 4 °C and was treated with 4H30 at 1 hpi
- antiviral activity when present during viral infection (4H30-Pre) [10]: showed significant antiviral activity when treating virus during viral infection
- effect on neuraminidase activity [11]: did not affect neuraminidase activity
